Each structure is given as a SMILES string. In brackets after ≈: the same amount, converted by molar mass. Several values for one entry are separate records, joined by “and”; a condition that tells them apart may be missing. Identical values can stand only once. Like-named read-outs stand apart in the source and are kept apart here.

Holding throughout (experiment): Antimicrobial activity assay (broth microdilution MIC)
Common to all, as to type: cell-based

In experiment [1] the test system is Escherichia coli 7623 (AcrABEFD+). The following applies: for MIC: Escherichia coli, read-out: MIC E. coli 7623 AcrABEFD+. Here is the method: (§1) Whole-cell antimicrobial activity was determined by broth microdilution using the Clinical and Laboratory Standards Institute (CLSI, formerly NCCLS) recommended methodology (NCCLS Document M7-A6, “Methods for Dilution Susceptibility Tests for Bacteria that Grow Aerobically Approved Standard Sixth Edition”, 2003). Compounds were tested in serial two-fold dilutions ranging from 64 to 0.06 μg/mL. A panel of 12 strains was evaluated in the assay. This panel consisted of the following laboratory strains: Staphylococcus aureus Oxford, Staphylococcus aureus WCUH29, Enterococcus faecalis I, Enterococcus faecalis 7, Haemophilus influenzae Q1, Haemophilus influenzae NEMC1, Moraxella catarrhalis 1502, Streptococcus pneumoniae 1629, Streptococcus pneumoniae N1387, Streptococcus pneumoniae Ery2, Escherichia coli 7623 (AcrABEFD+) and Escherichia coli 120 (AcrAB−). The minimum inhibitory concentration (MIC) was determined as the lowest concentration of compound that inhibited visible growth. A mirror reader was used to assist in determining the MIC endpoint.

For experiment [2], the system named is Haemophilus influenzae Q1. As to conditions: for MIC: Haemophilus influenzae, read-out: MIC H. influenzae Q1; for MIC H. influenzae Q1: individual results. Here is the method:
as §1

The test system of experiment [3] is Haemophilus influenzae NEMC1. As to conditions: for MIC: Haemophilus influenzae, read-out: MIC H. influenzae NEMC1. Here is the method: as §1
Experiment [4] has as its system Escherichia coli 120 (AcrAB−). The following applies: for MIC E. coli 120 AcrAB—: individual results, panel run 2 times; for MIC: Escherichia coli. Here is the method: as §1
Experiment [5] relates to Enterococcus faecalis I. The following applies: median of all results obtained, read-out: MIC E. faecalis I. Here is the method: as §1
The subject of experiment [6] is Streptococcus pneumoniae 1629. The following applies: median of all results obtained, read-out: MIC S. pneumoniae 1629. Here is the method:
as §1

In experiment [7] the test system is Enterococcus faecalis 7. As to conditions: median of all results obtained, read-out: MIC E. faecalis 7. Here is the method: as §1
For experiment [8], the system named is Staphylococcus aureus Oxford. The following applies: median of all results obtained, read-out: MIC S. aureus Oxford. Here is the method: as §1
Experiment [9] relates to Streptococcus pneumoniae N1387. As to conditions: median of all results obtained, read-out: MIC S. pneumoniae N1387. Here is the method: as §1
The mark [10] stands for this setting: individual results, panel run 2 times.
Where [11] appears, read: Q1, individual results, panel run 2 times.
[12] abbreviates: NEMC1, individual results, panel run 2 times.
Where [13] appears, read: Q1, median of all results obtained.
[14] abbreviates: NEMC1, median of all results obtained.
Where [15] appears, read: read-out: MIC E. coli 120 AcrAB—, median of all results obtained.

In the case of `Cc1nc(NNC(=O)[C@H](CC2CCCC2)CN(O)C=O)c(F)c(N2CCN(C)C[C@H]2C)n1` [Example 109, [(2R)-2-(Cyclopentylmethyl)-3-(2-{6-[(2R)-2,4-dimethyl-1-piperazinyl]-5-fluoro-2-methyl-4-pyrimidinyl}hydrazino)-3-oxopropyl]hydroxyformamide], the values for the MIC in experiment [1] (setting [10]), in experiment [2] (setting [11]) and in experiment [3] (setting [12]) were 8 µg/mL (≈ 17.7 µM), 0.5 µg/mL (≈ 1.11 µM) and 1 µg/mL (≈ 2.21 µM), respectively. Moreover, in experiment [4], the “MIC E. coli 120 AcrAB—” value is “≦0.06, μg/mL and 0.125 μg/mL”.
As for `Cc1nc(NNC(=O)[C@H](CC2CCCC2)CN(O)C=O)c(F)c(N2CCN3CCOC[C@@H]3C2)n1` [Example 24, [(2R)-2-(Cyclopentylmethyl)-3-(2-{5-fluoro-6-[(9aS)-hexahydropyrazino[2,1-c][1,4]oxazin-8(1H)-yl]-2-methyl-4-pyrimidinyl}hydrazino)-3-oxopropyl]hydroxyformamide], the MIC in experiment [5] stood at 48 µg/mL (≈ 100 µM); in experiment [6], 0.75 µg/mL (≈ 1.56 µM); in experiment [1] (median of all results obtained) it was 16 µg/mL (≈ 33.4 µM); in experiment [2] (setting [13]), 0.5 µg/mL (≈ 1.04 µM); in experiment [7] it was 32 µg/mL (≈ 66.7 µM); in [3] (setting [14]) it was 1 µg/mL (≈ 2.09 µM). In addition, the MIC in [8] turned out to be 2 µg/mL (≈ 4.17 µM); in experiment [4] (setting [15]), 0.188 µg/mL (≈ 0.391 µM); in experiment [9], 0.5 µg/mL (≈ 1.04 µM).
For `CN1CCN(c2nc(Cl)nc(NNC(=O)[C@H](CC3CCCC3)CN(O)C=O)c2F)CC12CC2` [Example 172, [(2R)-3-{2-[2-Chloro-5-fluoro-6-(4-methyl-4,7-diazaspiro[2.5]oct-7-yl)-4-pyrimidinyl]hydrazino}-2-(cyclopentylmethyl)-3-oxopropyl]hydroxyformamide], the “MIC E. coli 7623 AcrABEFD+” value in [1] (setting [10]) was 4 µg/mL and 16 µg/mL. Moreover, the MIC in experiment [2] (setting [11]) is 1 µg/mL (≈ 2.07 µM); in experiment [3] (setting [12]), 1 µg/mL (≈ 2.07 µM); in experiment [4] (read-out: MIC E. coli 120 AcrAB—, individual results, panel run 2 times) it was 0.125 to 0.5 µg/mL (≈ 0.258 to 1.03 µM). Further, in experiment [2] (panel run 2 times), the “MIC H. influenzae Q1” value came to 2 µg/mL (≈ 4.13 µM). Further, the “MIC H. influenzae NEMC1” value in experiment [3] (setting [10]) worked out at 2 µg/mL (≈ 4.13 µM).
For the molecule `Cc1nc(NNC(=O)[C@H](CC2CCCC2)CN(O)C=O)c(F)c(N2CCN(C)C3(CC3)C2)n1` [Example 275, ((2R)-2-(Cyclopentylmethyl)-3-{2-[5-fluoro-2-methyl-6-(4-methyl-4,7-diazaspiro[2.5]oct-7-yl)-4-pyrimidinyl]hydrazino}-3-oxopropyl)hydroxyformamide], the “MIC E. coli 7623 AcrABEFD+” value in experiment [1] (setting [10]) was 4 µg/mL and 16 µg/mL. Besides, the MIC in experiment [2] (setting [11]) was determined as 0.5 µg/mL (≈ 1.08 µM); in experiment [3] (setting [12]) it was 1 µg/mL (≈ 2.16 µM). The “MIC H. influenzae Q1” value in experiment [2] (panel run 2 times) was found to be 1 µg/mL (≈ 2.16 µM). For the same molecule, the “MIC E. coli 120 AcrAB—” value in experiment [4] is “≦0.06, μg/mL and 0.5 μg/mL”.
Take `C[C@@H]1CN(C)CCN1c1nc(Cl)nc(NNC(=O)[C@H](CC2CCCC2)CN(O)C=O)c1F` [Example 63, [(2R)-3-(2-{2-Chloro-6-[(2R)-2,4-dimethyl-1-piperazinyl]-5-fluoro-4-pyrimidinyl}hydrazino)-2-(cyclopentylmethyl)-3-oxopropyl]hydroxyformamide]: the MIC came out at 4 µg/mL (≈ 8.48 µM) in experiment [1] (median of all results obtained), 0.25 µg/mL (≈ 0.53 µM) in [2] (setting [13]), 0.5 µg/mL (≈ 1.06 µM) in experiment [3] (setting [14]) and 0.25 µg/mL (≈ 0.53 µM) in [4] (setting [15]).

The values above are taken from patent US20130045962A1, “PEPTIDE DEFORMYLASE INHIBITORS” (priority 2007, published 2013).
